In experiment [1] the target is T1, intracellular phosphorylation of EGFR in NCI-H1975 cell line that harbors the EGFR L858R T790M mutations (Homo sapiens, UniProt P00533, L858R/T790M).
T1 construct: NCI-H1975 cell line that harbors the EGFR L858R T790M mutations (ATCC, CRL-5908); host or cells: NCI-H1975
The experiment is described as follows: NCI-H1975 pEGFR AlphaLISA assay. In kind it is cell-based. The note with it: NCI-H1975 cells (EGFR L858R T790M), p-EGFR (Tyr1068), 4-5 hours incubation. The method, then:
On the next day, the test compounds and DMSO control were added into H1975 cell plate followed by incubation at 37C/5% CO2 for 4-5 hours. […] Then 5 μL of a donor bead mix was added to each well followed by overnight incubation at room temperature in dark. On the next day, the plate was read at a compatible plate reader to obtain pEGFR signal. Percent of pEGFR inhibition was plotted against log concentration of compounds to generate IC50 values.

The target of the next experiment is T2, EGFR (L858R T790M C797S) (Homo sapiens, UniProt P00533, C797S/L858R/T790M).
T2 construct: purchased SignalChem E10-122VG
The experiment is described as follows: Biochemical EGFR inhibition assay (Caliper mobility shift), EGFR LRTMCS. As to conditions: LRTMCS (PH) IC50 (nM) @ 1 mM ATP (Num), EGFR LRTMCS mutant. The gist of the method:
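Apparent IC50s were derived by plotting percent activity against the log of compound concentration. Activity was measured as phosphopeptide electrophoretically separated from substrate, after reactions at room temperature reached 10% to 20% phosphorylation and were halted with 35 mM EDTA.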

Setting [2] is: read-out: Ext pEGFR H1975 GMean IC50 (nM) Protocol: @Pharmaron AlphaLISA (Num).

Read-outs that look alike come from different tables or passages of the source.

T1 sequence (P00533 25-1210 T790M/L858R): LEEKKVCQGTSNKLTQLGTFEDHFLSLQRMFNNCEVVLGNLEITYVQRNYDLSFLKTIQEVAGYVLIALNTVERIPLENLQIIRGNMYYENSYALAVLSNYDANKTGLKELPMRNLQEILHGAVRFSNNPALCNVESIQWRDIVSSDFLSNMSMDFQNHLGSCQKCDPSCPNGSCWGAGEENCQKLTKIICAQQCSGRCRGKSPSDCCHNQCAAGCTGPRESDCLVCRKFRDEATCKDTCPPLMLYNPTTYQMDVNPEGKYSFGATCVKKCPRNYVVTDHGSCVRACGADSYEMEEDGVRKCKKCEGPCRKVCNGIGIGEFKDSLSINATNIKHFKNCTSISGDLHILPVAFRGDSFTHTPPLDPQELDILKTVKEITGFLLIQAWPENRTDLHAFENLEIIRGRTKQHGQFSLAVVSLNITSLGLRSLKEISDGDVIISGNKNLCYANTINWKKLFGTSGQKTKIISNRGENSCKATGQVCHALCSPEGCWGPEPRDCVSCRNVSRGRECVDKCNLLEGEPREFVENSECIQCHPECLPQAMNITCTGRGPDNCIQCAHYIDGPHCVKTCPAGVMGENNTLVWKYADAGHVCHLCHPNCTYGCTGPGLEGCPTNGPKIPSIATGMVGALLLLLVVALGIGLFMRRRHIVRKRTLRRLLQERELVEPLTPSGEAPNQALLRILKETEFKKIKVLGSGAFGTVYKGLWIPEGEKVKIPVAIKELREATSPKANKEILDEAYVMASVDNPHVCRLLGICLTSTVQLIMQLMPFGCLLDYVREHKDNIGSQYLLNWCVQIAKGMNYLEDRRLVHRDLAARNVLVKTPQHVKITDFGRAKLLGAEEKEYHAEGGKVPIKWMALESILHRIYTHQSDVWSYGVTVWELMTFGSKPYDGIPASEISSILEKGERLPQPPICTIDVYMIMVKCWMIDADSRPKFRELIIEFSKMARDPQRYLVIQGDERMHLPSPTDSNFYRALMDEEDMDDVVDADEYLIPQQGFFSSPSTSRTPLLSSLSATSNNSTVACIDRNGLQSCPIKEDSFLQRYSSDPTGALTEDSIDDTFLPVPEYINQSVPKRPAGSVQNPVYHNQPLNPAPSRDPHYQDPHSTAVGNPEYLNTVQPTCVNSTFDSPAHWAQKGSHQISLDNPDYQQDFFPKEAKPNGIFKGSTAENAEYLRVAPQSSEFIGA
T2 sequence (P00533 25-1210 T790M/C797S/L858R): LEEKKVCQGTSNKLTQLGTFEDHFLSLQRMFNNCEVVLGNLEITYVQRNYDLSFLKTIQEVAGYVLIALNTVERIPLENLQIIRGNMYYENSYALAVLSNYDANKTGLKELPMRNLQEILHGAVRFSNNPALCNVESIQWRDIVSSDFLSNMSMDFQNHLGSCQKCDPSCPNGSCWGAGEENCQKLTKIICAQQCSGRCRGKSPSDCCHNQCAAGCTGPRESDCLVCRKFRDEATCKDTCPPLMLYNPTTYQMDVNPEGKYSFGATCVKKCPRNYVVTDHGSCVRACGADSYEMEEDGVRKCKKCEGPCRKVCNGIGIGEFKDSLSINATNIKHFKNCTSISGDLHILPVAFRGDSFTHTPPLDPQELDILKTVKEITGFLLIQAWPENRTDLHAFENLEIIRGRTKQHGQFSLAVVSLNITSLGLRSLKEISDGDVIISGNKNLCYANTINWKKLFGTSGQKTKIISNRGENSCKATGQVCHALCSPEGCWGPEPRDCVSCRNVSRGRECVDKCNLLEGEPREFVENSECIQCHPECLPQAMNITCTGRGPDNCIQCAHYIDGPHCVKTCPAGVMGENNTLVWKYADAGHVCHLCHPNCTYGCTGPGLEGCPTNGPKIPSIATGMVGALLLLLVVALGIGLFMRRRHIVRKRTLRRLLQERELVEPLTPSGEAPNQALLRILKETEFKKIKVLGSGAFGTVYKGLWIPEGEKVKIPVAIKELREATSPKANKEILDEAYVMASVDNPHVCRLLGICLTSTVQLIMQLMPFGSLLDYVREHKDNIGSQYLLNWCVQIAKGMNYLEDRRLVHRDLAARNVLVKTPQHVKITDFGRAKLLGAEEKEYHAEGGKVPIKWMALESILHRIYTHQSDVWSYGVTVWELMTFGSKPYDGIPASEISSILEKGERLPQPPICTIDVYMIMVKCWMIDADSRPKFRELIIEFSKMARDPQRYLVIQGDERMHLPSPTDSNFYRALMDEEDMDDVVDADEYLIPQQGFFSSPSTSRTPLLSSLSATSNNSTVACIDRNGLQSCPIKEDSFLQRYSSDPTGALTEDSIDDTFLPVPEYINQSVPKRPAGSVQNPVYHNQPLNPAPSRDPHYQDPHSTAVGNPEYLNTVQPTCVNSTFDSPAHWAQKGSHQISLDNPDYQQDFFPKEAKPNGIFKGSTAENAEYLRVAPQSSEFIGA

As for `C[C@@H]1CCN1c1ncc(-c2cccnc2F)c2cc(Nc3ccnc(N4CC[C@@H](O)[C@@H](F)C4)n3)ncc12` (single isomer, unassigned) [Example 161, (3S,4R)-3-fluoro-1-(4-((5-(2-fluoropyridin-3-yl)-8-((R)-2-methylazetidin-1-yl)-2,7-naphthyridin-3-yl)amino)pyrimidin-2-yl)piperidin-4-ol or (3S,4R)-3-fluoro-1-(4-((5-(2-fluoropyridin-3-yl)-8-((S)-2-methylazetidin-1-yl)-2,7-naphthyridin-3-yl)amino)pyrimidin-2-yl)piperidin-4-ol], the half-inhibitory concentration (IC50) in experiment [1] (Ext pEGFR H1975 GMean IC50 (nM) Protocol: @Pharmaron AlphaLISA (Num)) is 30 to 50 nM; at EGFR (L858R T790M C797S), < 15 nM.
Turning to `C[C@@H]1CCN1c1ncc([C@@H]2CCOC2)c2cc(Nc3ccnc(N4CC[C@@H](O)[C@@H](F)C4)n3)ncc12` (single isomer, unassigned) [Example 162, (3S,4R)-3-fluoro-1-(4-((8-((R)-2-methylazetidin-1-yl)-5-((S)-tetrahydrofuran-3-yl)-2,7-naphthyridin-3-yl)amino)pyrimidin-2-yl)piperidin-4-ol or (3S,4R)-3-fluoro-1-(4-((8-((R)-2-methylazetidin-1-yl)-5-((R)-tetrahydrofuran-3-yl)-2,7-naphthyridin-3-yl)amino)pyrimidin-2-yl)piperidin-4-ol], the figures for the IC50 (in experiment [1] (setting [2]); at EGFR (L858R T790M C797S)) were 30 to 50 nM and < 15 nM, respectively.
The like results for `CO[C@H]1CCN(c2nccc(Nc3cc4c(C(C)C)cnc(N5CC[C@H]5C)c4cn3)n2)C[C@H]1OCCO` (single isomer, unassigned) [Example 167, 2-(((3R,4S)-1-(4-((5-isopropyl-8-((R)-2-methylazetidin-1-yl)-2,7-naphthyridin-3-yl)amino)pyrimidin-2-yl)-4-methoxypiperidin-3-yl)oxy)ethan-1-ol or 2-(((3S,4R)-1-(4-((5-isopropyl-8-((R)-2-methylazetidin-1-yl)-2,7-naphthyridin-3-yl)amino)pyrimidin-2-yl)-4-methoxypiperidin-3-yl)oxy)ethan-1-ol] were, in that order, < 10 nM and < 15 nM.
For the molecule `CC(C)c1cnc(N2C[C@H](O)[C@H]2C)c2cnc(Nc3ccnc(N4CC[C@@H](O)C(C)(C)C4)n3)cc12` (single isomer, unassigned) [Example 168, (R)-1-(4-((8-((2R,3S)-3-hydroxy-2-methylazetidin-1-yl)-5-isopropyl-2,7-naphthyridin-3-yl)amino)pyrimidin-2-yl)-3,3-dimethylpiperidin-4-ol or (S)-1-(4-((8-((2R,3S)-3-hydroxy-2-methylazetidin-1-yl)-5-isopropyl-2,7-naphthyridin-3-yl)amino)pyrimidin-2-yl)-3,3-dimethylpiperidin-4-ol], the half-maximal inhibitory concentration (IC50) in experiment [1] (setting [2]) is 30 to 50 nM; at EGFR (L858R T790M C797S) it was < 15 nM.
For the molecule `CC(C)c1cnc(N2C[C@H](O)[C@H]2C)c2cnc(Nc3ccnc(N4CC[C@@H](O)C5(CC5)C4)n3)cc12` (single isomer, unassigned) [Example 169, (R)-5-(4-((8-((2R,3S)-3-hydroxy-2-methylazetidin-1-yl)-5-isopropyl-2,7-naphthyridin-3-yl)amino)pyrimidin-2-yl)-5-azaspiro[2.5]octan-8-ol or (S)-5-(4-((8-((2R,3S)-3-hydroxy-2-methylazetidin-1-yl)-5-isopropyl-2,7-naphthyridin-3-yl)amino)pyrimidin-2-yl)-5-azaspiro[2.5]octan-8-ol], the 50% inhibitory concentration (IC50) in experiment [1] (setting [2]) was 30 to 50 nM; on EGFR (L858R T790M C797S), < 15 nM.
`CC(C)c1cnc(N2C[C@H](O)[C@H]2C)c2cnc(Nc3ccnc(N4CC[C@](C)(O)[C@](C)(F)C4)n3)cc12` (single isomer, unassigned) [Example 170, (3R,4S)-3-fluoro-1-(4-((8-((2R,3S)-3-hydroxy-2-methylazetidin-1-yl)-5-isopropyl-2,7-naphthyridin-3-yl)amino)pyrimidin-2-yl)-3,4-dimethylpiperidin-4-ol or (3S,4R)-3-fluoro-1-(4-((8-((2R,3S)-3-hydroxy-2-methylazetidin-1-yl)-5-isopropyl-2,7-naphthyridin-3-yl)amino)pyrimidin-2-yl)-3,4-dimethylpiperidin-4-ol]: the 50% inhibitory concentration (IC50) was 20 to 30 nM in experiment [1] (setting [2]) and < 15 nM on EGFR (L858R T790M C797S).
Turning to `CC(C)c1cnc(N2C[C@H](O)[C@H]2C)c2cnc(Nc3ccnc(N4CC[C@](C)(O)C(F)(F)C4)n3)cc12` (single isomer, unassigned) [Example 171, (S)-3,3-difluoro-1-(4-((8-((2R,3S)-3-hydroxy-2-methylazetidin-1-yl)-5-isopropyl-2,7-naphthyridin-3-yl)amino)pyrimidin-2-yl)-4-methylpiperidin-4-ol or (R)-3,3-difluoro-1-(4-((8-((2R,3S)-3-hydroxy-2-methylazetidin-1-yl)-5-isopropyl-2,7-naphthyridin-3-yl)amino)pyrimidin-2-yl)-4-methylpiperidin-4-ol], the concentration for half-maximal inhibition (IC50) was 30 to 50 nM in experiment [1] (setting [2]) and < 15 nM on EGFR (L858R T790M C797S).
Consider `CC(C)c1cnc(N2C[C@H](O)[C@H]2C)c2cnc(Nc3ccnc(N4CC[C@@](C)(O)[C@@H](F)C4)n3)cc12` (single isomer, unassigned) [Example 172, (3S,4R)-3-fluoro-1-(4-((8-((2R,3S)-3-hydroxy-2-methylazetidin-1-yl)-5-isopropyl-2,7-naphthyridin-3-yl)amino)pyrimidin-2-yl)-4-methylpiperidin-4-ol or (3R,4S)-3-fluoro-1-(4-((8-((2R,3S)-3-hydroxy-2-methylazetidin-1-yl)-5-isopropyl-2,7-naphthyridin-3-yl)amino)pyrimidin-2-yl)-4-methylpiperidin-4-ol], for which the IC50 in experiment [1] (setting [2]) is > 50 nM; on EGFR (L858R T790M C797S), 15 to 20 nM.
With `CC(C)c1cnc(N2C[C@H](O)[C@H]2C)c2cnc(Nc3ccnc(N4CC[C@@](C)(O)[C@@H](F)C4)n3)cc12` (single isomer, unassigned) [Example 173, (3S,4R)-3-fluoro-1-(4-((8-((2R,3S)-3-hydroxy-2-methylazetidin-1-yl)-5-isopropyl-2,7-naphthyridin-3-yl)amino)pyrimidin-2-yl)-4-methylpiperidin-4-ol or (3R,4S)-3-fluoro-1-(4-((8-((2R,3S)-3-hydroxy-2-methylazetidin-1-yl)-5-isopropyl-2,7-naphthyridin-3-yl)amino)pyrimidin-2-yl)-4-methylpiperidin-4-ol], the concentration for half-maximal inhibition (IC50) was 30 to 50 nM in experiment [1] (setting [2]) and < 15 nM on EGFR (L858R T790M C797S).
The like results for `CC(C)c1cnc(N2CC3(CCS3(=O)=O)C2)c2cnc(Nc3ccnc(N4CC[C@@](C)(O)[C@@H](F)C4)n3)cc12` (single isomer, unassigned) [Example 174, 6-(6-((2-((3S,4R)-3-fluoro-4-hydroxy-4-methylpiperidin-1-yl)pyrimidin-4-yl)amino)-4-isopropyl-2,7-naphthyridin-1-yl)-1-thia-6-azaspiro[3.3]heptane 1,1-dioxide or 6-(6-((2-((3R,4S)-3-fluoro-4-hydroxy-4-methylpiperidin-1-yl)pyrimidin-4-yl)amino)-4-isopropyl-2,7-naphthyridin-1-yl)-1-thia-6-azaspiro[3.3]heptane 1,1-dioxide] were, in that order, > 50 nM and 20 to 30 nM.
As for `CC(C)c1cnc(N2CC3(CCS3(=O)=O)C2)c2cnc(Nc3ccnc(N4CC[C@@](C)(O)[C@@H](F)C4)n3)cc12` (single isomer, unassigned) [Example 175, 6-(6-((2-((3S,4R)-3-fluoro-4-hydroxy-4-methylpiperidin-1-yl)pyrimidin-4-yl)amino)-4-isopropyl-2,7-naphthyridin-1-yl)-1-thia-6-azaspiro[3.3]heptane 1,1-dioxide or 6-(6-((2-((3R,4S)-3-fluoro-4-hydroxy-4-methylpiperidin-1-yl)pyrimidin-4-yl)amino)-4-isopropyl-2,7-naphthyridin-1-yl)-1-thia-6-azaspiro[3.3]heptane 1,1-dioxide], the IC50 is > 50 nM in experiment [1] (setting [2]) and < 15 nM on EGFR (L858R T790M C797S).
For the molecule `C[C@H](c1cnc(N2CC[C@H]2C)c2cnc(Nc3ccnc(N4CC[C@@H](O)[C@@](C)(F)C4)n3)cc12)C1COC1` (single isomer, unassigned) [Example 176, (3S,4R)-3-fluoro-3-methyl-1-(4-((8-((R)-2-methylazetidin-1-yl)-5-((S)-1-(oxetan-3-yl)ethyl)-2,7-naphthyridin-3-yl)amino)pyrimidin-2-yl)piperidin-4-ol or (3S,4R)-3-fluoro-3-methyl-1-(4-((8-((R)-2-methylazetidin-1-yl)-5-((R)-1-(oxetan-3-yl)ethyl)-2,7-naphthyridin-3-yl)amino)pyrimidin-2-yl)piperidin-4-ol], the 50% inhibitory concentration (IC50) in experiment [1] (setting [2]) was 20 to 30 nM; at EGFR (L858R T790M C797S) it was < 15 nM.

The values are drawn from patent US20240382483A1, “HETEROCYCLIC EGFR INHIBITORS FOR USE IN THE TREATMENT OF CANCER” (Blueprint Medicines Corporation, priority 2021, published 2024).
